Source: patent publication US20220160686A1, “MACROCYCLIC AZOLOPYRIDINE DERIVATIVES AS EED AND PRC2 MODULATORS” (Fulcrum Therapeutics, Inc., priority 2019, published 2022)

Target: T1, biotinylated AVI-tagged EED (76-441) (Homo sapiens, UniProt O75530)
T1 construct: GST (N, cleaved yes); made in house; host or cells: E. coli BL21(DE3), co-expressed with pGro7
Experiment: EED binding SPR assay
Conditions: 1:1 binding model; read-out: KD, equilibrium dissociation constant as measured by surface plasmon resonance (SPR)
Outline: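 Biotinylated AVI-EED(76-441) from E. coli was captured on Biotin CAPture chips (2200–2400 RU) in 10 mM HEPES pH 7.4, 150 mM NaCl, 0.05% Tween 20 and 2% DMSO. Compounds were run at 7 concentrations (3-fold dilutions) with 90 s association and 180 s dissociation, chip at 25 °C. Data were fitted to a 1:1 binding model.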

T1 sequence (O75530 76-441 limits assumed): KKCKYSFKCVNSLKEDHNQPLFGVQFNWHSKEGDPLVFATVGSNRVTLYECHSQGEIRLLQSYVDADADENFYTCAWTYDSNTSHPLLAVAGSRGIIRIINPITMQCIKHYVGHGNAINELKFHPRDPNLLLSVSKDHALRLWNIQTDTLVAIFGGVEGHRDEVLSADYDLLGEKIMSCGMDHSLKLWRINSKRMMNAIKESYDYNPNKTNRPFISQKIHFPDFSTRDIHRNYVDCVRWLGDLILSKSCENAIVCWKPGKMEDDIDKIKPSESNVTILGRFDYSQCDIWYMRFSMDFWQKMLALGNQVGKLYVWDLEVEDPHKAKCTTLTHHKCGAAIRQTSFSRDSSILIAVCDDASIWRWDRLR

Kd [nM]	Structure (SMILES)
< 2.5	Cn1nccc1-c1cc2c(n3cc(C(N)=O)nc13)NCc1c(F)ccc3c1[C@@H](CO3)CO2 [Compound 175, (S)-5-fluoro-12-(1-methyl-1H-pyrazol-5-yl)-6,7,15,15a-tetrahydro-1H-benzofuro[4,3-fg]imidazo[r,2′:1,6]pyrido[3,2-b][1,4]oxazonine-10-carboxamide]
< 2.5	Cn1nc(C(C)(C)C#N)cc1-c1cc2c(n3cnnc13)NCc1c(F)ccc3c1[C@@H](CO3)CO2 [Compound 169, (S)-2-(5-(12-fluoro-7a,8,13,14-tetrahydro-7H-[1,2,4]triazolo[4′,3′:1,6]pyrido[3,2-b]benzofuro[4,3-fg][1,4]oxazonin-4-yl)-1-methyl-1H-pyrazol-3-yl)-2-methylpropanenitrile]
< 2.5	Fc1cncnc1-c1cc2c(n3cnnc13)NCc1c(F)ccc3c1[C@@H](CO3)CO2 [Compound 164, (S)-12-fluoro-4-(5-fluoropyrimidin-4-yl)-7a,8,13,14-tetrahydro-7H-[1,2,4]triazolo[4′,3′:1,6]pyrido[3,2-b]benzofuro[4,3-fg][1,4]oxazonine]
< 2.5	Cc1ncccc1-c1cc2c(n3cc(C#N)nc13)NCc1c(F)ccc3c1[C@@H](CO3)CO2 [Compound 186, (S)-5-fluoro-12-(2-methylpyridin-3-yl)-6,7,15,15a-tetrahydro-1H-benzofuro[4,3-fg]imidazo[1′,2′:1,6]pyrido[3,2-b][1,4]oxazonine-10-carbonitrile]
10 to 50	Fc1ccc2c3c1CNc1c(cc(Br)c4nncn14)OC[C@@H]3CO2 [Compound 165, (S)-4-bromo-12-fluoro-7a,8,13,14-tetrahydro-7H-[1,2,4]triazolo[4′,3′:1,6]pyrido[3,2-b]benzofuro[4,3-fg][1,4]oxazonine]
< 2.5	COC(=O)N1CCC(c2cc3c(n4cnnc24)NCc2c(F)ccc4c2C(CO4)CO3)CC1 [Compound 16, methyl (S)-4-(12-fluoro-7a,8,13,14-tetrahydro-7H-[1,2,4]triazolo[4′,3′:1,6]pyrido[3,2-b]benzofuro[4,3-fg][1,4]oxazonin-4-yl)piperidine-1-carboxylate]
< 2.5	CS(=O)(=O)c1ccc(-c2cc3c(n4cnnc24)NCc2c(F)ccc4c2C(CO4)CO3)cc1 (centres unmarked) [Example 36]
10 to 50	Cc1ncc(-c2cc3c(n4cnnc24)NCc2c(F)cccc2CCO3)c(C)n1 [Compound 14, 4-(2,4-dimethylpyrimidin-5-yl)-12-fluoro-7,8,13,14-tetrahydro-[1,2,4]triazolo[4′,3′:1,6]pyrido[3,2-b]benzo[f][1,4]oxazonine]
< 2.5	Cc1ncccc1-c1cc2c(n3cnnc13)NCc1cccc3c1[C@H](CO3)CO2 [Compound 1, (15R)-10-(2-methyl-3-pyridyl)-13,17-dioxa-3,5,7,8-tetrazapentacyclo[13.6.1.04,12.05,9.018,22] docosa-1(22),4(12),6,8,10,18,20-heptaene]
2.5 to 5	Fc1ccc2c3c1CNc1c(cc(C4COC4)c4nncn14)OC[C@@H]3CO2 [Compound 12, (S)-12-fluoro-4-(oxetan-3-yl)-7a,8,13,14-tetrahydro-7H-[1,2,4]triazolo[4′,3′:1,6]pyrido[3,2-b]benzofuro[4,3-fg][1,4]oxazonine]
< 2.5	Cn1nccc1-c1cc2c(n3cnnc13)NCc1c(F)ccc3c1C(CO3)CO2 (centres unmarked) [Example 17]
< 2.5	Cc1cc(C#N)ccc1-c1cc2c(n3cnnc13)NCc1c(F)ccc3c1[C@H](CO3)CO2 [Example 49]
10 to 50	Cn1cc(Cc2cc3c(n4cnnc24)NCc2cccc4c2[C@@H](CO4)CO3)cn1 [Compound 7, (S)-4-((1-methyl-1H-pyrazol-4-yl)methyl)-7a,8,13,14-tetrahydro-7H-[1,2,4]triazolo[4′,3′:1,6]pyrido[3,2-b]benzofuro[4,3-fg][1,4]oxazonine]
< 2.5	COc1ncc(-c2cc3c(n4cnnc24)NCc2c(F)ccc4c2[C@H](CO4)CO3)cn1 [Example 30]
< 2.5	CC(=O)N1CCC(c2cc3c(n4cnnc24)NCc2cccc4c2[C@@H](CO4)CO3)CC1 [Compound 3, (S)-1-(4-(7a,8,13,14-tetrahydro-7H-[1,2,4]triazolo[4′,3′:1,6]pyrido[3,2-b]benzofuro[4,3-fg][1,4]oxazonin-4-yl)piperidin-1-yl)ethan-1-one]
< 2.5	Cn1nc(OC(F)F)cc1-c1cc2c(n3cnnc13)NCc1c(F)ccc3c1[C@@H](CO3)CO2 [Compound 167, (S)-4-(3-(difluoromethoxy)-1-methyl-1H-pyrazol-5-yl)-12-fluoro-7a,8,13,14-tetrahydro-7H-[1,2,4]triazolo[4′,3′:1,6]pyrido[3,2-b]benzofuro[4,3-fg][1,4]oxazonine]
> 50	c1cc2c3c(c1)OC[C@H]3COc1ccc3nncn3c1NC2 [Compound 11, (S)-7a,8,13,14-tetrahydro-7H-[1,2,4]triazolo[4′,3′:1,6]pyrido[3,2-b]benzofuro[4,3-fg][1,4]oxazonine]
< 2.5	Cc1cn(-c2cc3c(n4cnnc24)NCc2c(F)ccc4c2[C@@H](CO4)CO3)cn1 [Compound 15, (S)-12-fluoro-4-(4-methyl-1H-imidazol-1-yl)-7a,8,13,14-tetrahydro-7H-[1,2,4]triazolo[4′,3′:1,6]pyrido[3,2-b]benzofuro[4,3-fg][1,4]oxazonine]
< 2.5	Cn1nc(F)cc1-c1cc2c(n3cnnc13)NCc1c(F)ccc3c1[C@@H](CO3)CO2 [Compound 168, (S)-12-fluoro-4-(3-fluoro-1-methyl-1H-pyrazol-5-yl)-7a,8,13,14-tetrahydro-7H-[1,2,4]triazolo[4′,3′:1,6]pyrido[3,2-b]benzofuro[4,3-fg][1,4]oxazonine]
> 50	Cc1ncccc1-c1cc2c(n3cnnc13)NCc1c(F)cccc1COC2 [Compound 6, 12-fluoro-4-(2-methylpyridin-3-yl)-6,8,13,14-tetrahydro-[1,2,4]triazolo[4′,3′:1,6]pyrido[3,2-c]benzo[g][1,5]oxazonine]
5 to 10	Cc1ncccc1-c1cc2c(n3cnnc13)NCc1c(F)cccc1CCO2 [Compound 5, 12-fluoro-4-(2-methylpyridin-3-yl)-7,8,13,14-tetrahydro-[1,2,4]triazolo[4′,3′:1,6]pyrido[3,2-b]benzo[f][1,4]oxazonine]
2.5 to 5	CN(CC(F)(F)F)C(=O)c1cc2c(n3cnnc13)NCc1c(F)ccc3c1C(CO3)CO2 (centres unmarked) [Example 38]
10 to 50	Cc1ncccc1-c1cc2c(n3cc(C(N)=O)nc13)NCc1c(F)ccc3c1[C@@H](CO3)CO2 [Compound 176, (S)-5-fluoro-12-(2-methylpyridin-3-yl)-6,7,15,15a-tetrahydro-1H-benzofuro[4,3-fg]imidazo[r,2′:1,6]pyrido[3,2-b][1,4]oxazonine-10-carboxamide]
< 2.5	Cn1nc(C(F)(F)F)cc1-c1cc2c(n3cnnc13)NCc1c(F)ccc3c1[C@H](CO3)CO2 [Example 115]
5 to 10	Cn1cc(Cc2cc3c(n4cnnc24)NCc2c(F)ccc4c2[C@@H](CO4)CO3)cn1 [Compound 10, (S)-12-fluoro-4-((1-methyl-1H-pyrazol-4-yl)methyl)-7a,8,13,14-tetrahydro-7H-[1,2,4]triazolo[4′,3′:1,6]pyrido[3,2-b]benzofuro[4,3-fg][1,4]oxazonine]
< 2.5	Cc1ncoc1-c1cc2c(n3cnnc13)NCc1c(F)ccc3c1[C@@H](CO3)CO2 [Compound 189, (S)-12-fluoro-4-(4-methyloxazol-5-yl)-7a,8,13,14-tetrahydro-7H-[1,2,4]triazolo[4′,3′:1,6]pyrido[3,2-b]benzofuro[4,3-fg][1,4]oxazonine]
< 2.5	Cc1ncc(-c2cc3c(n4cnnc24)NCc2c(F)ccc4c2[C@@H](CO4)CO3)c(C)n1 [Compound 13, (S)-4-(2,4-dimethylpyrimidin-5-yl)-12-fluoro-7a,8,13,14-tetrahydro-7H-[1,2,4]triazolo[4′,3′:1,6]pyrido[3,2-b]benzofuro[4,3-fg][1,4]oxazonine]
< 2.5	Cn1nccc1-c1cc2c(n3cc(C#N)nc13)NCc1c(F)ccc3c1[C@@H](CO3)CO2 [Compound 172, (S)-5-fluoro-12-(1-methyl-1H-pyrazol-5-yl)-6,7,15,15a-tetrahydro-1H-benzofuro[4,3-fg]imidazo[r,2′:1,6]pyrido[3,2-b][1,4]oxazonine-10-carbonitrile]
10 to 50	CC(=O)N1CCC(c2cc3c(n4cnnc24)NCc2c(F)cccc2CCO3)CC1 [Compound 4, 1-(4-(12-fluoro-7,8,13,14-tetrahydro-[1,2,4]triazolo[4′,3′:1,6]pyrido[3,2-b]benzo[f][1,4]oxazonin-4-yl)piperidin-1-yl)ethan-1-one]
